Reference: PMC7312527 (International Journal of Molecular Sciences, 2020)

Legend:
[1] = In vivo acute oral toxicity (OECD 423); conditions: female, Balb/c, mouse, in vivo, mice, read-out: LD50 cut-off values
Description: (§1) Compound 3c was given orally (by gavage) in fixed doses, 5, 50, 300, or 2000 mg/kg body weight, at each stage of the study. Compound 3c was administered at an initial dose of 300 mg/kg, as its toxicity was unknown. According to the graph from the Organization for Economic Cooperation and Development (OCED) 423 guideline, six test stages might be performed. Three animals (female mice Balb/c) take part in each stage. The number of stages depends on the deaths of mice, which is the final test parameter. Results allowed for the classification of compound 3c into a Globally Harmonized Classification System for Chemical Substances and Mixtures (GHS) category. Moreover, the LD50 cut-off values were determined. The research was carried out on the basis of the agreement of the Local Ethical Committee for animal testing in Łódź No. 56/115 ŁB/2018. Compound 3c was administrated in a first dose of 300 mg/kg of body weight.
(§2) The testing protocol is as follows: After the initial dose of 300 mg/kg body weight, if 2–3 mice die, the compound is given at a lower dose (50 mg/kg). The lowest dose (5 mg/kg) is administrated if 2–3 animals die after the 50 mg/kg dose. If there are no deaths or only one mouse dies after administration of the 300 mg/kg dose, the compound is given again at the same dose (300 mg/kg). If there are no deaths again, the highest dose (2000 mg/kg) is given. After each dose, the mice are observed for 14 days. […]

female mice Balb/c = test: In vivo acute oral toxicity (OECD 423)
Description: as §1, §2

[2] = target: T1, Amyloid β peptide (1–42) (Aβ42) (Homo sapiens, UniProt P05067); test: Inhibition of self-induced Aβ42 aggregation (thioflavin-T assay); assay type: biochemical
T1 construct: Amyloid β peptide (1–42) (Aβ42) was purchased from Sigma Aldrich; purchased Sigma Aldrich
T1 sequence (P05067 672-713 limits assumed): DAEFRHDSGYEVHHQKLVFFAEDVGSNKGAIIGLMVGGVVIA

EeAChE = EeAChE (Electrophorus electricus, UniProt O42275); test: Kinetic characterization of EeAChE inhibition (Lineweaver–Burk plot); assay type: biochemical; conditions: inhibitor 25, 75, 100 nM
Sequence of EeAChE (O42275 24-633): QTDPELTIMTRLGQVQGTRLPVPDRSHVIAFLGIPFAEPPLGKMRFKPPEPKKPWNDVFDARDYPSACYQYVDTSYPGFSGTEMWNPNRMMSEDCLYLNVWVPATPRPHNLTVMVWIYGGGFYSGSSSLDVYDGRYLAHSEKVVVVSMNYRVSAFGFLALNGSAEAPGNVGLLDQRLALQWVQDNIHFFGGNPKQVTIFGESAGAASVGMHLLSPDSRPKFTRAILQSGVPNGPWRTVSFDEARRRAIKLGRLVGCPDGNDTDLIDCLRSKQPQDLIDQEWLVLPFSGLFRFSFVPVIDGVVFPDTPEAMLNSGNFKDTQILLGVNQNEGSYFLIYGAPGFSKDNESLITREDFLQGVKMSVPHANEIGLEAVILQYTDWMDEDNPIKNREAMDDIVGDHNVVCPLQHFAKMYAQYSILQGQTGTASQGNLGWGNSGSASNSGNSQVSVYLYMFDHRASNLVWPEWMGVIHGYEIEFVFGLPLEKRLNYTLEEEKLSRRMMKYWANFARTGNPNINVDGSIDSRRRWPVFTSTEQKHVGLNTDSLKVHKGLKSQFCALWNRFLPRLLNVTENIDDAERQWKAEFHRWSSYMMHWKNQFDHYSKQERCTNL
Description: Compound 3e was selected and kinetic studies were performed similar to the enzyme inhibition assay. […]. 0.05–0.5 mM). All processes were assayed in triplicate.

in vitro = assay type: cell-based; conditions: human, human hepatic stellate cells (HSCs), HSCs, 24 h, read-out: hepatotoxicity (MTT; cell viability as percentage of control)
Description: Human hepatic stellate cells (HSCs, Sciencell) were cultured in the Stellate Cell Medium (Sciencell) with 1% Stellate Cell Growth Supplement, 2% fetal bovine serum (FBS), and 1% penicillin/streptomycin solution (Sciencell). Cells were kept in the incubator (37 °C, 5% CO2). At the beginning of the experiment, cells were seeded in the 96-well plates at a density of 5 × 10^3 cells per well and incubated in the incubator for 24 h. After the incubation period, medium was removed and HSCs were exposed to 100 µL of the compound solutions over a range of concentrations (10–0.1 µM) or nothing but culture medium (blank control). Cells were further incubated for 24 h. At the end, medium was removed, cells were washed with PBS, and 50 µL of the MTT solution (0.75 mg/mL) was added to the cells. Plates were kept in the dark for 2 h at 37 °C. Finally, the MTT solution was removed and 100 µL of DMSO was added to each well. Plates with DMSO were kept at room temperature for 10 min. After this time, 5 µL of Sorensen Buffer was added to each well. Plates were swayed and the absorbance was measured at a wavelength of 570 nm by a microplate reader (Synergy H1, BioTek). The cell viability was expressed as a percentage of the control values (blank control).

## O=C(NCCCCNc1c2c(nc3ccccc13)CCCC2)c1cc(Cl)cc(Cl)c1 [Compound 3c]
[1]
  LD50 at 14 days: 500 mg/kg
Female mice Balb/c
  GHS (Globally Harmonized System) Category: 4
Female mice Balb/c; 300 mg/kg, first and second stages
  deaths: did not cause any deaths
Female mice Balb/c; 2000 mg/kg, first stage
  deaths: all three mice died
[2]; 5 µM
  Inhibition of Aβ aggregation: 23%
[2]; 5 µM, read-out: Inhibition of Aβ aggregation
  inhibition at 5 µM: 23.5%
[2]; 10 µM, read-out: Inhibition of Aβ aggregation
  inhibition at 10 µM: 24.3%
[2]; 25 µM, read-out: Inhibition of Aβ aggregation
  inhibition at 25 µM: 25.8%
[2]; 50 µM, read-out: Inhibition of Aβ aggregation
  inhibition at 50 µM: 26.7%
[2]; 100 µM
  Inhibition of Aβ aggregation: 32%
[2]; 100 µM, read-out: Inhibition of Aβ aggregation
  inhibition at 100 µM: 31.8%
[2]; at all concentrations (5–100 µM)
  Inhibition of Aβ42 aggregation: more than 23%
EeAChE
  inhibition type of EeAChE: mixed-type inhibition
In vitro; 0.1 µM
  viability at 24 h, 0.1 µM: 99.9%
In vitro; 1 µM
  viability at 24 h, 1 µM: 95.4%
In vitro; 10 µM
  viability at 24 h, 10 µM: 87.4%
